Values quoted from earlier work, collected in patent publication US20260272898A1 (Bayer Aktiengesellschaft, priority 2024, published 2026).

Details: in vivo

- half-life: short
SMILES: CCOc1ncc(C)c2c1[C@H](c1ccc(C#N)cc1OC)C(C(N)=O)=C(C)N2 [finerenone, (4S)-4-(4-cyano-2-methoxyphenyl)-5-ethoxy-2,8-dimethyl-1,4-dihydro-1,6-naphthyridine-3-carboxamide]
